# According to patent publication US12570642B2, “GLP-IR modulating compounds” (Gilead Sciences, Inc., priority 2021, dated 2026):
# Molecular target: GLP-1R (Homo sapiens, UniProt P43220)
# Assay: GLP-1R Activation - cAMP Assay
# Assay type: cell-based
# Conditions: cAMP increase in CHO cells stably expressing GLP-1R; each compound run on one of the two cAMP assays (Assay 1 or Assay 2, not specified)
# How it was run: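 CHO cells stably expressing GLP-1R, plated at 1,000 cells/well overnight, then equilibrated 1 h in HBSS with 20 mM Hepes and 0.1% BSA. Agonist added as 10-point dose response for 30 min at 37 °C. cAMP measured by HTRF (Cisbio Gs Dynamic kit); EC50 from sigmoidal fit.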
# GLP-1R, sequence (P43220 24-463): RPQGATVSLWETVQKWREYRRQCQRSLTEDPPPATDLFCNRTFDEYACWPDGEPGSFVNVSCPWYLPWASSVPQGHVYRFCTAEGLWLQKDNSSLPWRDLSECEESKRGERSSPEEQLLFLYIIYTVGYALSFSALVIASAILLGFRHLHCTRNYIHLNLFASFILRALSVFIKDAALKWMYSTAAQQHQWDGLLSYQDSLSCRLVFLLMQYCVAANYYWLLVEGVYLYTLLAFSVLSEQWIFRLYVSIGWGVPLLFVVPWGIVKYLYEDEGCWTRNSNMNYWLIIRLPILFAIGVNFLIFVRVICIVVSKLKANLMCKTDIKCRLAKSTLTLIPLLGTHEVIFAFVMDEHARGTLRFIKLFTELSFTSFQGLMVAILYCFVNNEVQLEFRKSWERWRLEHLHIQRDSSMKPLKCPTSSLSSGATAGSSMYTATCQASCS
row,EC50 [nM],Structure (SMILES)
1,0.132,"Cn1ncc(-c2ccc(COc3cccc(-c4cc(F)c(Cc5nc6ccc(C(=O)O)cc6n5[C@@H]5COCC5(C)C)cc4F)n3)c(F)c2)n1 [Example 553, (S)-2-(2,5-difluoro-4-(6-((2-fluoro-4-(2-methyl-2H-1,2,3-triazol-4-yl)benzyl)oxy)pyridin-2-yl)benzyl)-1-(4,4-dimethyltetrahydrofuran-3-yl)-1H-benzo[d]imidazole-6-carboxylic acid]"
2,0.047,"Cn1cc(-c2cc(F)c(COc3cccc(-c4cc(F)c(Cc5nc6ccc(C(=O)O)cc6n5[C@@H]5COCC5(C)C)cc4F)n3)cn2)nn1 [Example 555, (S)-2-(2,5-difluoro-4-(6-((4-fluoro-6-(1-methyl-1H-1,2,3-triazol-4-yl)pyridin-3-yl)methoxy)pyridin-2-yl)benzyl)-1-(4,4-dimethyltetrahydrofuran-3-yl)-1H-benzo[d]imidazole-6-carboxylic acid]"
3,0.262,"COC[C@H]1COC[C@H]1n1c(Cc2cc(F)c(-c3cccc(OCc4ccc(C(F)(F)F)cc4)n3)cc2F)nc2ccc(C(=O)O)cc21 [Example 556, 2-(2,5-difluoro-4-(6-((4-(trifluoromethyl)benzyl)oxy)pyridin-2-yl)benzyl)-1-((3S,4S)-4-(methoxymethyl)tetrahydrofuran-3-yl)-1H-benzo[d]imidazole-6-carboxylic acid]"
4,0.031,"CC1(C)COC[C@H]1n1c(Cc2cc(F)c(-c3ccc(F)c(OCc4ccc(F)cc4)n3)cc2F)nc2ccc(C(=O)O)cc21 [Example 557, (S)-2-(2,5-difluoro-4-(5-fluoro-6-((4-fluorobenzyl)oxy)pyridin-2-yl)benzyl)-1-(4,4-dimethyltetrahydrofuran-3-yl)-1H-benzo[d]imidazole-6-carboxylic acid]"
5,0.195,"COC[C@H]1COC[C@H]1n1c(Cc2cc(F)c(-c3ccc(F)c(OCc4ccc(Cl)cc4F)c3)cc2F)nc2ccc(C(=O)O)cc21 [Example 559, 2-((3′-((4-chloro-2-fluorobenzyl)oxy)-2,4′,5-trifluoro-[1,1′-biphenyl]-4-yl)methyl)-1-((3S,4S)-4-(methoxymethyl)tetrahydrofuran-3-yl)-1H-benzo[d]imidazole-6-carboxylic acid]"
6,0.207,"O=C(O)c1ccc2nc(Cc3cc(F)c(-c4cccc(OCc5cnc(-n6ccnn6)cc5Cl)n4)cc3F)n(CCOC3CC3)c2c1 [Example 562, 2-(4-(6-((4-chloro-6-(1H-1,2,3-triazol-1-yl)pyridin-3-yl)methoxy)pyridin-2-yl)-2,5-difluorobenzyl)-1-(2-cyclopropoxyethyl)-1H-benzo[d]imidazole-6-carboxylic acid]"
7,1.56,"COCCn1c(Cc2cc(F)c(-c3cccc(OCc4cnc(-n5nnc6c5CCCC6)cc4Cl)n3)cc2F)nc2ccc(C(=O)O)cc21 [Example 568, 2-(4-(6-((4-chloro-6-(4,5,6,7-tetrahydro-1H-benzo[d][1,2,3]triazol-1-yl)pyridin-3-yl)methoxy)pyridin-2-yl)-2,5-difluorobenzyl)-1-(2-methoxyethyl)-1H-benzo[d]imidazole-6-carboxylic acid]"
8,0.955,"CC(C)O[C@H]1COC[C@H]1n1c(Cc2cc(F)c(-c3cccc(OCc4ccc(Cl)cc4F)n3)cc2F)nc2ccc(C(=O)O)cc21 [Example 570, 2-(4-(6-((4-chloro-2-fluorobenzyl)oxy)pyridin-2-yl)-2,5-difluorobenzyl)-1-((3R,4R)-4-isopropoxytetrahydrofuran-3-yl)-1H-benzo[d]imidazole-6-carboxylic acid]"
9,1.27,"CCO[C@H]1COC[C@H]1n1c(Cc2cc(F)c(-c3cccc(OCc4ccc(Cl)cc4F)n3)cc2F)nc2ccc(C(=O)O)cc21 [Example 571, 2-(4-(6-((4-chloro-2-fluorobenzyl)oxy)pyridin-2-yl)-2,5-difluorobenzyl)-1-((3R,4R)-4-ethoxytetrahydrofuran-3-yl)-1H-benzo[d]imidazole-6-carboxylic acid]"
10,0.457,"CC1(C)COC[C@H]1n1c(Cc2c(F)cc(-c3ccnc(OCc4ccc(F)cc4)n3)c(F)c2F)nc2ccc(C(=O)O)cc21 [Example 574, (S)-1-(4,4-dimethyltetrahydrofuran-3-yl)-2-(2,3,6-trifluoro-4-(2-((4-fluorobenzyl)oxy)pyrimidin-4-yl)benzyl)-1H-benzo[d]imidazole-6-carboxylic acid]"

# Second part, the compound before the results:
row,Structure (SMILES),EC50 [nM]
1,"CC1(C)COC[C@H]1n1c(Cc2cc(F)c(-c3cccc(OCc4ccc(-c5cnn(C(F)F)c5)cc4)n3)cc2F)nc2ccc(C(=O)O)cc21 [Example 551, (S)-2-(4-(6-((4-(1-(difluoromethyl)-1H-pyrazol-4-yl)benzyl)oxy)pyridin-2-yl)-2,5-difluorobenzyl)-1-(4,4-dimethyltetrahydrofuran-3-yl)-1H-benzo[d]imidazole-6-carboxylic acid]",0.11
2,"CC1(C)COC[C@H]1n1c(Cc2cc(F)c(-c3cccc(OCc4cnc(-c5cnn(C(F)F)c5)cc4Cl)n3)cc2F)nc2ccc(C(=O)O)cc21 [Example 552, (S)-2-(4-(6-((4-chloro-6-(1-(difluoromethyl)-1H-pyrazol-4-yl)pyridin-3-yl)methoxy)pyridin-2-yl)-2,5-difluorobenzyl)-1-(4,4-dimethyltetrahydrofuran-3-yl)-1H-benzo[d]imidazole-6-carboxylic acid]",0.99
3,"Cn1nncc1-c1ccc(COc2cccc(-c3cc(F)c(Cc4nc5ccc(C(=O)O)cc5n4[C@@H]4COCC4(C)C)cc3F)n2)c(F)c1 [Example 554, (S)-2-(2,5-difluoro-4-(6-((2-fluoro-4-(1-methyl-1H-1,2,3-triazol-5-yl)benzyl)oxy)pyridin-2-yl)benzyl)-1-(4,4-dimethyltetrahydrofuran-3-yl)-1H-benzo[d]imidazole-6-carboxylic acid]",0.026
4,"CC1(C)COC[C@H]1n1c(Cc2c(F)cc(-c3ccc(F)c(OCc4ccc(F)cc4)n3)c(F)c2F)nc2ccc(C(=O)O)cc21 [Example 558, (S)-1-(4,4-dimethyltetrahydrofuran-3-yl)-2-(2,3,6-trifluoro-4-(5-fluoro-6-((4-fluorobenzyl)oxy)pyridin-2-yl)benzyl)-1H-benzo[d]imidazole-6-carboxylic acid]",0.132
5,"O=C(O)c1ccc2nc(Cc3cc(F)c(-c4cccc(OCc5cnc(-n6ccnn6)cc5Cl)n4)cc3F)n(CCOC(F)F)c2c1 [Example 560, 2-(4-(6-((4-chloro-6-(1H-1,2,3-triazol-1-yl)pyridin-3-yl)methoxy)pyridin-2-yl)-2,5-difluorobenzyl)-1-(2-(difluoromethoxy)ethyl)-1H-benzo[d]imidazole-6-carboxylic acid]",0.192
6,"CC(C)OCCn1c(Cc2cc(F)c(-c3cccc(OCc4cnc(-n5ccnn5)cc4Cl)n3)cc2F)nc2ccc(C(=O)O)cc21 [Example 561, 2-(4-(6-((4-chloro-6-(1H-1,2,3-triazol-1-yl)pyridin-3-yl)methoxy)pyridin-2-yl)-2,5-difluorobenzyl)-1-(2-isopropoxyethyl)-1H-benzo[d]imidazole-6-carboxylic acid]",0.558
7,"COC(C)(C)Cn1c(Cc2cc(F)c(-c3cccc(OCc4cnc(-n5ccnn5)cc4Cl)n3)cc2F)nc2ccc(C(=O)O)cc21 [Example 563, 2-(4-(6-((4-chloro-6-(1H-1,2,3-triazol-1-yl)pyridin-3-yl)methoxy)pyridin-2-yl)-2,5-difluorobenzyl)-1-(2-methoxy-2-methylpropyl)-1H-benzo[d]imidazole-6-carboxylic acid]",0.041
8,"CO[C@@H](C)[C@H](C)n1c(Cc2cc(F)c(-c3cccc(OCc4ccc(Cl)cc4F)n3)cc2F)nc2ccc(C(=O)O)cc21 [Example 564, 2-(4-(6-((4-chloro-2-fluorobenzyl)oxy)pyridin-2-yl)-2,5-difluorobenzyl)-1-((2S,3S)-3-methoxybutan-2-yl)-1H-benzo[d]imidazole-6-carboxylic acid]",2.29
9,"CO[C@H](C)[C@@H](C)n1c(Cc2cc(F)c(-c3cccc(OCc4ccc(Cl)cc4F)n3)cc2F)nc2ccc(C(=O)O)cc21 [Example 565, 2-(4-(6-((4-chloro-2-fluorobenzyl)oxy)pyridin-2-yl)-2,5-difluorobenzyl)-1-((2R,3R)-3-methoxybutan-2-yl)-1H-benzo[d]imidazole-6-carboxylic acid]",0.194
10,"CC(C)COCCn1c(Cc2cc(F)c(-c3cccc(OCc4ccc(Cl)cc4F)n3)cc2F)nc2ccc(C(=O)O)cc21 [Example 566, 2-(4-(6-((4-chloro-2-fluorobenzyl)oxy)pyridin-2-yl)-2,5-difluorobenzyl)-1-(2-isobutoxyethyl)-1H-benzo[d]imidazole-6-carboxylic acid]",4.09
11,"COCCn1c(Cc2cc(F)c(-c3cccc(OCc4cnc(-n5nc6c(n5)CCCC6)cc4Cl)n3)cc2F)nc2ccc(C(=O)O)cc21 [Example 567, 2-(4-(6-((4-chloro-6-(4,5,6,7-tetrahydro-2H-benzo[d][1,2,3]triazol-2-yl)pyridin-3-yl)methoxy)pyridin-2-yl)-2,5-difluorobenzyl)-1-(2-methoxyethyl)-1H-benzo[d]imidazole-6-carboxylic acid]",100
12,"CC(C)COCCn1c(Cc2cc(F)c(-c3cccc(OCc4cnc(-n5ccnn5)cc4Cl)n3)cc2F)nc2ccc(C(=O)O)cc21 [Example 569, 2-(4-(6-((4-chloro-6-(1H-1,2,3-triazol-1-yl)pyridin-3-yl)methoxy)pyridin-2-yl)-2,5-difluorobenzyl)-1-(2-isobutoxyethyl)-1H-benzo[d]imidazole-6-carboxylic acid]",0.987
13,"CC1(C)COC[C@H]1n1c(Cc2cc(F)c(-c3ccnc(OCc4ccc(F)cc4)n3)cc2F)nc2ccc(C(=O)O)cc21 [Example 575, (S)-2-(2,5-difluoro-4-(2-((4-fluorobenzyl)oxy)pyrimidin-4-yl)benzyl)-1-(4,4-dimethyltetrahydrofuran-3-yl)-1H-benzo[d]imidazole-6-carboxylic acid]",0.186
